Measured values published in patent US20160374944A1, “COMPOSITIONS AND METHODS FOR TREATING AND PREVENTING CANCER BY TARGETING AND INHIBITING CANCER STEM CELLS” (priority 2011, published 2016).

Tested on: Pancreatic CSCs
Experiment: spheroid formation and cell viability in spheroids (trypan blue)
Assay type: cell-based, human
Conditions: for cell viability in spheroids: EGCG 0-60 μM with or without quercetin 20 μM
Procedure: (A) Pancreatic CSCs were grown in six-well ultralow attachment plates (Corning Inc., Corning, N.Y.) at a density of 1,000 cells/ml in DMEM supplemented with 1% N2 Supplement (Invitrogen), 2% B27 Supplement (Invitrogen), 20 ng/ml human platelet growth factor (Sigma-Aldrich), 100 ng/ml EGF (Invitrogen) and 1% antibiotic-antimycotic (Invitrogen) at 37° C. in a humidified atmosphere of 95% air and 5% CO2 and treated with rottlerin (0-2 μM) for 7 days to obtain primary spheroids. At the end of incubation period, spheroids were collected, reseeded and treated with rottlerin for another week to obtain secondary spheroids. (B) Cell viability in spheroids was measured by trypan blue assay at the end of 7 and 14 days from the above experiment.
(A) Pancreatic CSCs were seeded in suspension and treated with EGCG (0-60 μM) for 7 days. Pictures of spheroids formed in suspension were taken by a microscope. (B) Pancreatic CSCs were seeded in suspension and treated with EGCG (0-60 μM) for 7 days. At the end of incubation period, spheroids were collected, and dissociated with Accutase (Innovative Cell Technologies, Inc.). For secondary spheroids, cells were reseeded and treated with EGCG (0-60 μM) for 7 days. Cell viability was measured by trypan blue assay. […] Pancreatic CSCs were seeded in soft agar and treated with various doses of EGCG and incubated at […] for 21 days. At the end of incubation period, colonies were counted.
(A) Pancreatic CSCs were treated with EGCG (0-60 μM) for 36 h. At the end of incubation period, cells were harvested and the expression of Nanog, Sox-2, c-Myc and Oct-4 was measured by the q-RT-PCR. […] Pancreatic CSCs were transduced with either scrambled shRNA or Nanog shRNA expressing lentiviral vector (pLKO.1), and cell lysates were collected and western blot analysis was performed using anti-Nanog antibody (data not shown). CSC/scrambled and CSC/Nanog shRNA were seeded as described above and treated with EGCG (0-60 μM). After 7 days, spheroids were collected and cell suspensions were prepared and viable cells were counted by trypan blue assay.
(A) Effects of EGCG and quercetin on spheroid and colony formation. […] CSCs were seeded in suspension and treated with EGCG (0-60 μM) with or without quercetin (20 μM) for 7 days. At the end of incubation period, all the spheroids were collected and resuspended. Cell viability was measured by trypan blue assay. […] Pancreatic CSCs were seeded in soft agar and treated with various doses of EGCG (0-60 μM) with or without quercetin (20 μM) and incubated at […] for 21 days. At the end of incubation period, colonies were counted. […] (B) Effects of EGCG and quercetin on invasion and migration. Upper panel, Matrigel invasion assay. CSCs were plated onto the Matrigel-coated membrane in the top chamber of the transwell and treated with EGCG (0-60 μM) with or without quercetin (20 μM) for 48 hrs. Cells invaded to the lower chambered were fixed with methanol, stained with crystal violet and counted. […] Lower panel, Transwell migration assay. Pancreatic CSCs were plated in the top chamber of the transwell and treated with EGCG (0-60 μM) with or without quercetin (20 μM) for 48 hrs. Cells migrated to the lower chambered were fixed with methanol, stained with crystal violet and counted. […] CSCs were seeded in suspension and treated with EGCG (0-60 μM) with or without quercetin (20 μM) for 7 days. At the end of incubation period, all the spheroids were collected.

Compound	CSC viability in spheroids (CSCs transduced with Nanog shRNA, EGCG 0-60 μM, 7 days)	CSC viability in spheroids (CSCs transduced with scrambled shRNA, EGCG 0-60 μM, 7 days)	cell viability in spheroids (7 days)	growth (size) of spheroids in suspension (EGCG 0-60 μM, 7 days)	CSC viability in primary and secondary spheroids (EGCG 0-60 μM, 7 days each, trypan blue)	size of primary and secondary spheroids in suspension (rottlerin 0-2 μM, 7 and 14 days)	cell viability of spheroids (rottlerin 0-2 μM, 7 and 14 days, trypan blue)
O=C(O[C@@H]1Cc2c(O)cc(O)cc2O[C@@H]1c1cc(O)c(O)c(O)c1)c1cc(O)c(O)c(O)c1 [EGCG, epigallocatechin gallate]	further enhanced the antiproliferative effects	inhibited CSC's viability in spheroids transduced with Nanog-scrambled shRNA in a dose-dependent manner	inhibited cell viability in spheroids, colony formation, migration and invasion by CSCs in a dose-dependent manner	inhibited the growth (size) of spheroids in suspension in a dose dependent manner	inhibited CSC's viability in primary and secondary spheroids in a dose-dependent manner	–	–
O=c1c(O)c(-c2ccc(O)c(O)c2)oc2cc(O)cc(O)c12 [quercetin]	–	–	effective alone	–	–	–	–
CC(=O)c1c(O)c(C)c(O)c(Cc2c(O)c3c(c(C(=O)/C=C/c4ccccc4)c2O)OC(C)(C)C=C3)c1O [rottlerin]	–	–	–	–	–	inhibited the size	inhibited
